Test results published in patent publication US7973063B2, “Methods for activating PPAR gamma-type receptors” (Galderma Research & Development, priority 2004, dated 2011).
Read-outs that look alike come from different tables or passages of the source.

Tests used:
PPARα = molecular target: T1, PPARα (Homo sapiens, UniProt Q07869); test: Crossed-curve PPAR transactivation assay (PPARα); type: cell-based; conditions: HeLN cells stably transfected with Gal-hPPARα and luciferase reporter; crossed curves vs reference agonist, Schild regression; read-out: PPARα KdApp
T1 construct: Either is a handle for the test and no part of the key
T1 sequence (Q07869 200-468 limits assumed): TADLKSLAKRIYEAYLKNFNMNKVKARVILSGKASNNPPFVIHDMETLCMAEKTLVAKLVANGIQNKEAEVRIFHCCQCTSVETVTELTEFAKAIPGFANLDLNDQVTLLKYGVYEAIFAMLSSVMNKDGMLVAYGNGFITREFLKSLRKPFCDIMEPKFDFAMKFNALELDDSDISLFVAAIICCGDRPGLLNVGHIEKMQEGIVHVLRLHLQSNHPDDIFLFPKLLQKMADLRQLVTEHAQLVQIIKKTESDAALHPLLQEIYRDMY
Method: (§1) Activation of the PPAR receptors by an agonist (activator) in HeLN cells leads to the expression of a reporter gene, luciferase, which, in the presence of a substrate, generates light. The modulation of the PPAR receptors is measured by quantifying the luminescence produced after incubation of the cells in the presence of a reference agonist. The ligands will displace the agonist from its site. The measurement of the activity is performed by quantifying the light produced. This measurement makes it possible to determine the modulatory activity of the compounds according to the invention by the determination of the constant which is the affinity of the molecule for the PPAR receptor. Since this value can fluctuate depending on the basal activity and the expression of the receptor, it is referred to as apparent Kd (KdApp in nM).
(§2) To determine this constant, “crossed curves” for the test product, against a reference agonist, are prepared using a 96-well plate: 10 concentrations of the test product plus a concentration 0 are arranged in a line, and 7 concentrations of the agonist plus a concentration 0 are arranged in a column. This is 88 measurement points for 1 product and 1 receptor. The remaining 8 wells are used for repeatability controls.
(§3) Measurements are also taken for total agonist controls with the same products.
(§4) The HeLN cell lines used are stable transfectants containing the plasmids ERE-βGlob-Luc-SV-Neo (reporter gene) and PPAR (α, δ, γ) Gal-hPPAR. These cells are seeded in 96-well plates at the rate of 10 000 cells per well in 100 μl of DMEM medium without phenol red and supplemented with 10% of defatted calf serum. The plates are then incubated for 16 hours at 37° C. and 7% CO2.
(§5) The various dilutions of the test products and of the reference ligand are added at the rate of 5 μl per well. The plates are subsequently incubated for 18 hours at 37° C. and 7% CO2. The culture medium is removed by turning over and 100 μl of a 1:1 PBS/luciferin mixture are added to each well. After 5 minutes, the plates are read using the luminescence reader.

PPARδ = molecular target: T2, PPARδ (Homo sapiens, UniProt Q03181); test: Crossed-curve PPAR transactivation assay (PPARδ); type: cell-based; conditions: HeLN cells stably transfected with Gal-hPPARδ and luciferase reporter; crossed curves vs reference agonist, Schild regression; read-out: PPARδ KdApp
T2 construct: Either is a handle for the test and no part of the key
T2 sequence (Q03181 171-441 limits assumed): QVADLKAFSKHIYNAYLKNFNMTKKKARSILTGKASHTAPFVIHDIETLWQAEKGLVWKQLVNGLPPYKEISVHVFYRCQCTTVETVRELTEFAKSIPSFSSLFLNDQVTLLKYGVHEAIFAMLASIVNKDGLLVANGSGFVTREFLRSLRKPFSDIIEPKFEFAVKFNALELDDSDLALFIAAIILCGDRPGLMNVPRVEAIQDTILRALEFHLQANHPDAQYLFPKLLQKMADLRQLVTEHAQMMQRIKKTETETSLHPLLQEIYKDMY
Method: as §1, §2, §3, §4, §5

PPARγ [1] = molecular target: T3, PPARγ (Homo sapiens, UniProt P37231); test: Crossed-curve PPAR transactivation assay (PPARγ); type: cell-based
T3 construct: PPARγ KdApp; other: HeLN cells stably transfected with Gal-hPPARγ and luciferase reporter; KdApp in nM (PPARγ receptors), compounds according to the present invention; Either is a handle for the test and no part of the key
T3 sequence (P37231 238-505 limits assumed): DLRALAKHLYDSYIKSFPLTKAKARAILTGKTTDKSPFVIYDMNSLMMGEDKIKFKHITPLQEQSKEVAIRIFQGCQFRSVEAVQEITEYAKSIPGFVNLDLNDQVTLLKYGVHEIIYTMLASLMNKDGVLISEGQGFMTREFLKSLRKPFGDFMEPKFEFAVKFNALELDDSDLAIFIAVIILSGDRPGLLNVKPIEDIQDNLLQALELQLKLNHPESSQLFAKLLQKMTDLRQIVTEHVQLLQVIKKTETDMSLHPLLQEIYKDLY
Method: as §1, §2, §3, §4, §5

PPARγ [2] = conditions: Table 1, PPARγ receptors; values described for the compounds of FR-2,812,876; read-out: KdApp in nM (PPARγ receptors), compounds according to Patent FR 2 812 876; cited from earlier work
[3] = HeLN cells stably transfected with Gal-hPPARγ and luciferase reporter, crossed curves vs reference agonist, Schild regression, read-out: PPARγ KdApp

| Kd (PPARα) | Kd (PPARδ) | Kd (PPARγ [1]; [3]) | Kd (PPARγ [1]; Table 1, PPARγ receptors, read-out: KdApp in nM (PPARγ receptors), compounds according to the present invention) | SMILES | Kd (PPARγ [2]) |
| --- | --- | --- | --- | --- | --- |
| 250 nM | 2000 nM | 0.03 nM |  | CCCCCNC(=O)N(C)c1cccc(-c2ccc(C[C@H](OCC)C(=O)O)cc2)c1 [Example 2, 2(S)-Ethoxy-3-[3′-(1-methyl-3-pentylureido)biphenyl-4-yl]propanoic acid] |  |
|  |  |  |  | CCCCCCC(=O)N(C)Cc1cccc(-c2ccc(CC3SC(=O)NC3=O)cc2)c1 (centres unmarked) [Example 35, N-[4′-(2,4-Dioxothiazolidin-5-ylmethyl)biphenyl-3-ylmethyl]-N-methylheptanamide] | 1000 nM |
|  |  |  |  | CCCCCCCCNC(=O)c1cccc(-c2ccc(CC3SC(=O)NC3=O)cc2)c1 (centres unmarked) [Example 23, N-Octyl-4′-(2,4-dioxothiazolidin-5-ylmethyl)biphenyl-3-carboxamide] | 2000 nM |
| 2 nM | 50 nM | 0.003 nM |  | C=CCO[C@@H](Cc1ccc(-c2cccc(N(C)C(=O)NCCCCCCC)c2)cc1)C(=O)O [Example 6, 2(S)-Allyloxy-3-[3′-(3-heptyl-1-methylureido)biphenyl-4-yl]propanoic acid] |  |
|  |  |  |  | CCCCCCCCCC(=O)N(C)Cc1cccc(-c2ccc(CC3SC(=O)NC3=O)cc2)c1 (centres unmarked) [Example 32, N-[4′-(2,4-Dioxothiazolidin-5-ylmethyl)biphenyl-3-ylmethyl]-N-methyldecanamide] | 250 nM |
| 30 nM | 250 nM | < 1 nM | < 1 nM | CCCCCCCNC(=O)N(C)c1cccc(-c2ccc(C[C@H](OCC)C(=O)O)cc2)c1 [Example 1, 2(S)-Ethoxy-3-[3′-(3-heptyl-1-methylureido)biphenyl-4-yl]propanoic acid] |  |
|  |  |  |  | CN(Cc1cccc(-c2ccc(CC3SC(=O)NC3=O)cc2)c1)C(=O)C(C)(C)C (centres unmarked) [Example 22, N-[4′-(2,4-Dioxothiazolidin-5-ylmethyl)biphenyl-3-ylmethyl]-2,2,N-trimethylpropionamide] | 250 nM |
|  |  |  |  | CCO[C@@H](Cc1ccc(-c2cccc(CN(C)C(=O)c3ccccc3)c2)cc1)C(=O)O [Example 13, (S)-2-Ethoxy-3-(3′-{[methyl(1-phenylmethanoyl)amino]methyl}biphenyl-4-yl)propionic acid] | 500 nM |
| 30 nM | 500 nM | 0.025 nM |  | CCCCCCCNC(=O)N(C)c1cccc(-c2ccc(C[C@H](OCCC)C(=O)O)cc2)c1 [Example 4, 2-(S)-Propyloxy-3-[3′-(3-heptyl-1-methylureido)biphenyl-4-yl]propanoic acid] |  |
| 250 nM |  | 0.03 nM |  | CCCCCCCNC(=O)N(C)c1cccc(-c2ccc(C[C@H](OCc3ccccc3)C(=O)O)cc2)c1 [Example 5, 2(S)-Benzyloxy-3-[3′-(3-heptyl-1-methylureido)biphenyl-4-yl]propanoic acid] |  |
